Key:
MAPKAPK2 = MAPKAPK2 (Homo sapiens, UniProt P49137); test: biochemical; settings: read-out: %Ctrl @ 2000nM
EGFR = EGFR (Homo sapiens, UniProt P00533); test: biochemical; settings: read-out: %Ctrl @ 2000nM
PFTK1 = PFTK1 (Homo sapiens, UniProt O94921); test: biochemical; settings: read-out: %Ctrl @ 2000nM
EPHA6 = EPHA6 (Homo sapiens, UniProt Q9UF33); test: biochemical; settings: read-out: %Ctrl @ 2000nM
FLT3(D835H) = FLT3(D835H) (Homo sapiens, UniProt P36888, D835H); test: biochemical; settings: read-out: %Ctrl @ 2000nM
[1] = biological target: RSK4(Kin.Dom.2-C-terminal) (Homo sapiens, UniProt Q9UK32); test: biochemical; settings: read-out: %Ctrl @ 2000nM
TEC = TEC (Homo sapiens, UniProt P42680); test: biochemical; settings: read-out: %Ctrl @ 2000nM
DDR1 = DDR1 (Homo sapiens, UniProt Q08345); test: biochemical; settings: read-out: %Ctrl @ 2000nM
PRKD2 = PRKD2 (Homo sapiens, UniProt Q9BZL6); test: biochemical; settings: read-out: %Ctrl @ 2000nM
MUSK = MUSK (Homo sapiens, UniProt O15146); test: biochemical; settings: read-out: %Ctrl @ 2000nM
STK16 = STK16 (Homo sapiens, UniProt O75716); test: biochemical; settings: read-out: %Ctrl @ 2000nM
LCK = LCK (Homo sapiens, UniProt P06239); test: biochemical; settings: read-out: %Ctrl @ 2000nM
CDK7 = CDK7 (Homo sapiens, UniProt P50613); test: biochemical; settings: read-out: %Ctrl @ 2000nM
DCAMKL2 = DCAMKL2 (Homo sapiens, UniProt Q8N568); test: biochemical; settings: read-out: %Ctrl @ 2000nM
p38 MAPK (T180/Y182) = settings: HEK293 cells; 48 h
EGFR(L858R) = EGFR(L858R) (Homo sapiens, UniProt P00533, L858R); test: biochemical; settings: read-out: %Ctrl @ 2000nM
CDK8 = CDK8 (Homo sapiens, UniProt P49336); test: biochemical; settings: read-out: %Ctrl @ 2000nM
EPHA5 = EPHA5 (Homo sapiens, UniProt P54756); test: biochemical; settings: read-out: %Ctrl @ 2000nM
MET = MET (Homo sapiens, UniProt P08581); test: biochemical; settings: read-out: %Ctrl @ 2000nM
TNIK = TNIK (Homo sapiens, UniProt Q9UKE5); test: biochemical; settings: read-out: %Ctrl @ 2000nM
[2] = biological target: JAK1(JH1domain-catalytic) (Homo sapiens, UniProt P23458); test: biochemical; settings: read-out: %Ctrl @ 2000nM
WNK3 = WNK3 (Homo sapiens, UniProt Q9BYP7); test: biochemical; settings: read-out: %Ctrl @ 2000nM
PIKFYVE = PIKFYVE (Homo sapiens, UniProt Q9Y2I7); test: biochemical; settings: read-out: %Ctrl @ 2000nM
EGFR(L747-T751del,Sins) = EGFR(L747-T751del,Sins) (Homo sapiens, UniProt P00533, DEL747-750/T751S); test: biochemical; settings: read-out: %Ctrl @ 2000nM
[3] = biological target: RSK1(Kin.Dom.1-N-terminal) (Homo sapiens, UniProt Q15418); test: biochemical; settings: read-out: %Ctrl @ 2000nM
AXL = AXL (Homo sapiens, UniProt P30530); test: biochemical; settings: read-out: %Ctrl @ 2000nM
SGK = SGK (Homo sapiens, UniProt O00141); test: biochemical; settings: read-out: %Ctrl @ 2000nM
[4] = biological target: JAK2(JH1domain-catalytic) (Homo sapiens, UniProt O60674); test: biochemical; settings: read-out: %Ctrl @ 2000nM

RSK1(Kin.Dom.1-N-terminal), sequence (Q15418 1-391 limits assumed): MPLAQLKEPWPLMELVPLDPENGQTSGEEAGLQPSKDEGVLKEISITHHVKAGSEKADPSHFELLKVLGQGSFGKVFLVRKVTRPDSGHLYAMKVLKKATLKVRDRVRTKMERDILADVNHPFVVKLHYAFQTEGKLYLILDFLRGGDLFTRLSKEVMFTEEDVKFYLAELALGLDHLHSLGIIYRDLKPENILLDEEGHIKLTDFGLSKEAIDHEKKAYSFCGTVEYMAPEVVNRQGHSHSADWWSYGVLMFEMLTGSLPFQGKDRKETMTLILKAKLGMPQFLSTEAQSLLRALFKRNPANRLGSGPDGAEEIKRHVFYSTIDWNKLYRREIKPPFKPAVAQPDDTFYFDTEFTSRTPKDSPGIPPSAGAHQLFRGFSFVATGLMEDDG
TNIK, sequence (Q9UKE5 whole entry): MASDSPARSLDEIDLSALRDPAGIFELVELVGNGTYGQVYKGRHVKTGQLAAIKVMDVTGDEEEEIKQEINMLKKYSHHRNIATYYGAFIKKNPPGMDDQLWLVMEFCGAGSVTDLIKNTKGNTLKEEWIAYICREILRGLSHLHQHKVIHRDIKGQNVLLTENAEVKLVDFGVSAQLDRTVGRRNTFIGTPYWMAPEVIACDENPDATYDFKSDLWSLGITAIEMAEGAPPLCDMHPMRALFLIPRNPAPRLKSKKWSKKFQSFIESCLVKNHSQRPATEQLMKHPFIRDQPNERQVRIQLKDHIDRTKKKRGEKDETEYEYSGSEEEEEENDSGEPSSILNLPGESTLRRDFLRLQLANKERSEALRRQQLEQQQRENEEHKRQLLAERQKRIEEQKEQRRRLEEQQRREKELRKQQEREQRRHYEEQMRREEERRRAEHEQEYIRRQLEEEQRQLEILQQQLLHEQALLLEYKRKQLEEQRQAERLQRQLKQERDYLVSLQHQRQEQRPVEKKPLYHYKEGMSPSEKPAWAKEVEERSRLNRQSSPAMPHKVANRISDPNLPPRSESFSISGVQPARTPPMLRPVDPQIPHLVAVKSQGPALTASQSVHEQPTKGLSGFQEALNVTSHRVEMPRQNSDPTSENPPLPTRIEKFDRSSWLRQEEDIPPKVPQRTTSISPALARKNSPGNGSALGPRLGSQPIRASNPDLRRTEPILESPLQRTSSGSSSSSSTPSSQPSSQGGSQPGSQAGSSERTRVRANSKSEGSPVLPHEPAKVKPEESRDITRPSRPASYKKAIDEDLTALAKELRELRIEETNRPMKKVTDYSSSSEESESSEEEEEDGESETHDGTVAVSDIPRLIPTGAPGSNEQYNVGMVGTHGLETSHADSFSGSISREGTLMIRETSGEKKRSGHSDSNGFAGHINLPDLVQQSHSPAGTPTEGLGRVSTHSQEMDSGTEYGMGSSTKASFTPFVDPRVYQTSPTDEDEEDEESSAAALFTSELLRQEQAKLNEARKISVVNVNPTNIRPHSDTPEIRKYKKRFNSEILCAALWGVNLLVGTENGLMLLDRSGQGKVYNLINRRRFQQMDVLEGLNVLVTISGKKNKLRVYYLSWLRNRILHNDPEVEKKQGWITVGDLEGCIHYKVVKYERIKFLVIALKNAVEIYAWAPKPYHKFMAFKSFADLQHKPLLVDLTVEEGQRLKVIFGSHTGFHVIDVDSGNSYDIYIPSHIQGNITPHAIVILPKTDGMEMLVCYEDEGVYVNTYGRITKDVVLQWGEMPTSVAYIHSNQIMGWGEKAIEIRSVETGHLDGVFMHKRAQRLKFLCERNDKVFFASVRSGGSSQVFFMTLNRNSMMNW
CDK7, sequence (P50613 whole entry): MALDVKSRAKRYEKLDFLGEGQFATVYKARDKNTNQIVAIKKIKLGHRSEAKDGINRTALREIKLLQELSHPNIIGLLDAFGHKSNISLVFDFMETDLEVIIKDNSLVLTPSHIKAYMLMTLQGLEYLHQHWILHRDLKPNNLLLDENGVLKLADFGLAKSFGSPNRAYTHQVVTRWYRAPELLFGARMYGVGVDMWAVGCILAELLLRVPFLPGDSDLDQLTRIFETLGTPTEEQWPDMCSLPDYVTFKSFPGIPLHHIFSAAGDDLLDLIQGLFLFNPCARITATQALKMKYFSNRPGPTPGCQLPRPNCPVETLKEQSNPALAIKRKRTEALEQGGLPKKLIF
PIKFYVE, sequence (Q9Y2I7 whole entry): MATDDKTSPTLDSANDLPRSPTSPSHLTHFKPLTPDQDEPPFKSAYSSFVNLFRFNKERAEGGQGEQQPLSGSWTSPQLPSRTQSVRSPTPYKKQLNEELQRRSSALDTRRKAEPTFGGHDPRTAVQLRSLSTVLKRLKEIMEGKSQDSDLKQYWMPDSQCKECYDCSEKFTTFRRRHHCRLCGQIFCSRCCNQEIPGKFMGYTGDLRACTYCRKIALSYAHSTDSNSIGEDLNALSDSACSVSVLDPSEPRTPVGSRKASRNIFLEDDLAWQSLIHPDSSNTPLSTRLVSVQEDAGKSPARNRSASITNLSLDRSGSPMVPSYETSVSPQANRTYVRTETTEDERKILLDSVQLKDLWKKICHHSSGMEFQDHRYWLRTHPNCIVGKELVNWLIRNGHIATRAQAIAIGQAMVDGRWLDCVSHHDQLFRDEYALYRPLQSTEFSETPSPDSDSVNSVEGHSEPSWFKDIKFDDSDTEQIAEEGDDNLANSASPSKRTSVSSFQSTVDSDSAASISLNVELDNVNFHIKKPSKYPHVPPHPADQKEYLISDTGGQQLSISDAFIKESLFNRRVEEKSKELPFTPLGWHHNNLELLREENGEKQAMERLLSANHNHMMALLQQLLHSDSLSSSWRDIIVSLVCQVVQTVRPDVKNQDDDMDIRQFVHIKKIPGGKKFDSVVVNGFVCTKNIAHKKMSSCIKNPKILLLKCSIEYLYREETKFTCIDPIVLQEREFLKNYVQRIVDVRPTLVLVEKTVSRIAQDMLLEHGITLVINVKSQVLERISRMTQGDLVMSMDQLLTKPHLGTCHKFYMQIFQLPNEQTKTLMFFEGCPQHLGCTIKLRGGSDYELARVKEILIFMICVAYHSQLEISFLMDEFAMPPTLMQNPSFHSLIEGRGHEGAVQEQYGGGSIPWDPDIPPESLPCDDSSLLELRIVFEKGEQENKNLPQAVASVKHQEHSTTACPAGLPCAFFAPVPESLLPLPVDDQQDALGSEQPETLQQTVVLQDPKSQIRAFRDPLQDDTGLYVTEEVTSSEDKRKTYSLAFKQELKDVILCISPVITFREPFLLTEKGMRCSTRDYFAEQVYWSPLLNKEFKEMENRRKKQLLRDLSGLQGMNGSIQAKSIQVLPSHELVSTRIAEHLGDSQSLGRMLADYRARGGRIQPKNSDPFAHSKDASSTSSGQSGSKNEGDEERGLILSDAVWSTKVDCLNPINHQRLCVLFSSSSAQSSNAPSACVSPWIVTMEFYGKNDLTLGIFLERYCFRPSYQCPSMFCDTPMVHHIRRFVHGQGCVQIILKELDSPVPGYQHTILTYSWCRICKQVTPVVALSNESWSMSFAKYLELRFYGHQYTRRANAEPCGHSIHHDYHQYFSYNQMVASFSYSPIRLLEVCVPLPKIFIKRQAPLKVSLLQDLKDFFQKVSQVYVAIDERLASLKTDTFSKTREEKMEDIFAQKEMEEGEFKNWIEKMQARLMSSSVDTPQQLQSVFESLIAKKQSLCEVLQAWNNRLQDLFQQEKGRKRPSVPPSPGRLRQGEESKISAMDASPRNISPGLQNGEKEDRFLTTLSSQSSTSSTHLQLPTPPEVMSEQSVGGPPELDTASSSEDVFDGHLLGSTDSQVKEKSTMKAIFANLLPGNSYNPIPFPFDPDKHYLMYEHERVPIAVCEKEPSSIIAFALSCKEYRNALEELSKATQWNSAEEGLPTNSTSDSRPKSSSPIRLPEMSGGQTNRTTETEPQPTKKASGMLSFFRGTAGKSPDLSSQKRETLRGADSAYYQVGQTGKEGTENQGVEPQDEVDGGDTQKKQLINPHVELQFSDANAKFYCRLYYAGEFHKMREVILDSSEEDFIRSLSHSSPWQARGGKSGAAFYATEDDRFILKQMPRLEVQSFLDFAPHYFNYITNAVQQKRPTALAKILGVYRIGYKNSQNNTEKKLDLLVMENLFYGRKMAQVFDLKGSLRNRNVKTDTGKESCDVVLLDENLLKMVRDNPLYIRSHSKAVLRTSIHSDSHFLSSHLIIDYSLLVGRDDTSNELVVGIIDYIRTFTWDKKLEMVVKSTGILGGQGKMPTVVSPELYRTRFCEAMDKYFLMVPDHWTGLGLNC
RSK4(Kin.Dom.2-C-terminal), sequence (Q9UK32 401-745 limits assumed): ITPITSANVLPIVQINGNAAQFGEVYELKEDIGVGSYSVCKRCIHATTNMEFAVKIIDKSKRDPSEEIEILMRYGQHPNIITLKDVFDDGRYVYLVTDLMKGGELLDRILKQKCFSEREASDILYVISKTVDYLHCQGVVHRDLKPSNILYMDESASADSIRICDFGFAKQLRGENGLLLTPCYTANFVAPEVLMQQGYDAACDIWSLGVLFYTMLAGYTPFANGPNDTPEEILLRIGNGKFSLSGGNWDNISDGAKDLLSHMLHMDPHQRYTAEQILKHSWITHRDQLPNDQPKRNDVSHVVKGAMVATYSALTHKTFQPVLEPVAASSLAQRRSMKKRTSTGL
EGFR(L747-T751del,Sins), sequence (P00533 with tags, fused parts or gaps DEL747-750/T751S): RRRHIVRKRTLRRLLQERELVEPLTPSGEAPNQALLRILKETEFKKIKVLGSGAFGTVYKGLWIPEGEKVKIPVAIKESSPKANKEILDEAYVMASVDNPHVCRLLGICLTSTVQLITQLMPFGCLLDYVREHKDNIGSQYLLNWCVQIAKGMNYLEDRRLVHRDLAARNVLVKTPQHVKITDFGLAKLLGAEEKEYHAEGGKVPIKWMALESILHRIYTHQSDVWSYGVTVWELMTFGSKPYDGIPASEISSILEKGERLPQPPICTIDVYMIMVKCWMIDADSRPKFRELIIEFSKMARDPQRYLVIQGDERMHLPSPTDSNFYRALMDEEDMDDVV

CC(C)COC(=O)c1[nH]c2ccc(F)cc2c1-c1cn(CC2CCN(CCNS(=O)(=O)c3ccc(CC(C)C)cc3)CC2)nn1 [AB668, isobutyl 5-fluoro-3-(1-((1-(2-((4-isobutylphenyl)sulfonamido)ethyl)piperidin-4-yl)methyl)-1H-1,2,3-triazol-4-yl)-1H-indole-2-carboxylate]
remaining activity at 2 µM (MAPKAPK2): 92%
remaining activity at 2 µM (EGFR): 92%
remaining activity at 2 µM (PFTK1): 84%
remaining activity at 2 µM (EPHA6): 83%
remaining activity at 2 µM (FLT3(D835H)): 89%
remaining activity at 2 µM [1]: 94%
remaining activity at 2 µM (TEC): 95%
remaining activity at 2 µM (DDR1): 96%
remaining activity at 2 µM (PRKD2): 88%
remaining activity at 2 µM (MUSK): 92%
remaining activity at 2 µM (STK16): 82%
remaining activity at 2 µM (LCK): 99%
remaining activity at 2 µM (CDK7): 98%
remaining activity at 2 µM (DCAMKL2): 93%
p38 activation (p38 MAPK (T180/Y182)): activated in both cell types
remaining activity at 2 µM (EGFR(L858R)): 96%
remaining activity at 2 µM (CDK8): 81%
remaining activity at 2 µM (EPHA5): 100%
remaining activity at 2 µM (MET): 100%
remaining activity at 2 µM (TNIK): 88%
remaining activity at 2 µM [2]: 75%
remaining activity at 2 µM (WNK3): 98%
remaining activity at 2 µM (PIKFYVE): 1.7%
remaining activity at 2 µM (EGFR(L747-T751del,Sins)): 86%
remaining activity at 2 µM [3]: 100%
remaining activity at 2 µM (AXL): 100%
remaining activity at 2 µM (SGK): 100%
remaining activity at 2 µM [4]: 85%

From article PMC10838953
